Our source for the IC50 values is patent US8344181B2, “N-2 adamantanyl-2-phenoxy-acetamide derivatives as 11-beta hydroxysteroid dehydrogenase inhibitors” (Janssen Pharmaceutica N.V., priority 2004, dated 2013).

The target of assay [1] is T1, 11β-HSD2 (Homo sapiens, UniProt P80365).
T1 construct: endogenous in cells; host or cells: HepG2 (ATCC HB-8065)
T1 sequence (P80365 1-405): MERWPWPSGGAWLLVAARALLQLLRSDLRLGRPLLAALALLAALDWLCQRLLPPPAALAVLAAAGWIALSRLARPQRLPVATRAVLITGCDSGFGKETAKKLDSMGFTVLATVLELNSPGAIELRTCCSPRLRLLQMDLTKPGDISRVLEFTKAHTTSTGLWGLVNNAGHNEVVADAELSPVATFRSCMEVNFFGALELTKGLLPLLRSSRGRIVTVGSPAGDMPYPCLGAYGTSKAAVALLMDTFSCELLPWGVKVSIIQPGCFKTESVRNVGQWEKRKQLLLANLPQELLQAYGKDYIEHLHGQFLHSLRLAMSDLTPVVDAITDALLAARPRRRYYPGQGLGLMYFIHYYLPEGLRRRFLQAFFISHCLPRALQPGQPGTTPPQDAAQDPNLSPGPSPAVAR
Kind of assay: Cellular assay of 11β-HSD2 activity in HepG2 cells. Format: cell-based. The settings on record: 4 hour pre-incubation, 10^-5M to 10^-10M, read-out: HSD2 cellular HepG2 Score. On the procedure:
The effects on 11β-HSD2 activity was studied in HepG2 and LCC-PK1-cells HepG2-cells (ATCC HB-8065) were seeded in 12 well plates at a density of 100,000 cells/ml and grown at 37° C. in a humidified 5% CO2 atmosphere in MEM-Rega-3 medium supplemented with 10% heat inactivated foetal calf serum, 2 mM L-glutamine and sodium bicarbonate). Medium was refreshed twice a week.
Following a 4 hour pre-incubation with test compound, 0.5 μCi ^3H-cortisol or corticosterone, was added to the cultures. One hour later, the medium was extracted on Extrelut^3-columns with 15 ml diethyl ether and the extract was analysed by HPLC as described above.
(§1) As for the enzymatic assays, the compounds to be tested were taken from a stock solution and tested at a final concentration ranging from 10^−5M to 10^−10M. From the thus obtained dose response curves, the pIC50 value was calculated and scored as follows; Score 1=pIC50 value<5, Score 2=pIC50 value in the range of 5 to 6, Score 3=pIC50 value>6. (in this table NT stands for Not Tested).

Assay [2] addresses T2, 11β-HSD1 (Mus musculus, UniProt P50172).
T2 construct: endogenous in cells; host or cells: 3T3-L1 (ATCC-CL-173), differentiated into adipocytes
Kind of assay: Cellular assay of 11β-HSD1 activity in differentiated 3T3-L1 cells. The class given is cell-based. The settings on record: 4 hour pre-incubation, 10^-5M to 10^-10M, read-out: HSD1 cellular 3T3-L1 Score. The procedure:
The effects on 11β-HSD1 activity was measured in differentiated 3T3-L1 cells and rat hepatocytes.
Mouse fibroblast 3T3-L1 cells (ATCC-CL-173) were seeded at a density of 16500 cells/ml in 12 well plates and grown for 7 days in DMEM medium (supplemented with 10% heat inactivated foetal calf serum, 2 mM glutamine and 25 mg gentamycin) at 37° C. in a humidified 5% CO2 atmosphere. Medium was refreshed twice a week. Fibroblasts were differentiated into adipocytes at 37° C. in a 5% CO2 humidified atmosphere in growth medium containing 2 μg/ml insulin, 55 μg/ml IBMX and 39.2 μg/ml dexamethasone.
Primary hepatocytes from male rats were seeded on normal Falcon 12 well plates at a density of 250000 cells/well and incubated for 16 hours at 37° C. in a 5% CO2 humidified atmosphere in DMEM-HAM's F12 medium containing 5% Nu-serum, 100 U/ml penicillin, 100 μg/ml streptomycin, 0.25 μg/ml amphotericin B, 50 μg/ml gentamycin sulfate, 5 μg/ml insulin and 392 ng/ml dexamethasone. Following a 4 hour pre-incubation with test compound, 0.5 μCi ^3H-cortisone or dehydrocorticosterone, was added to the 3T3-L1 cultures. One hour later, the medium was extracted on Extrelut^3-columns with 15 ml diethyl ether and the extract was analysed by HPLC as described above. The effects of JNJ-compounds on rat hepatocyte HSD1 activity was measured after an incubation period of 90 minutes with 0.5 μCi^3H-dehydrocorticosterone. Corticosterone formation was analysed by HPLC.
as §1

T2 sequence (P50172 whole entry): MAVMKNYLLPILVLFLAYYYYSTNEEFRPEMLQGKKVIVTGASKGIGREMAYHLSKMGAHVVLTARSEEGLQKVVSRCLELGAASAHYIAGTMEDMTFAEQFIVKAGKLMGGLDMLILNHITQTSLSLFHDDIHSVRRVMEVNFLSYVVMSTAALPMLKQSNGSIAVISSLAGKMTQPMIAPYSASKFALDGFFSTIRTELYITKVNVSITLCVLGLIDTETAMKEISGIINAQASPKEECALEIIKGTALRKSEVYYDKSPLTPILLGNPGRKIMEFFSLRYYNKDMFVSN

In the case of `CC(C)(Oc1ccc(Cl)cc1)C(=O)N[C@H]1[C@@H]2CC3C[C@H]1C[C@](O)(C3)C2` [Compound 67], the IC50 was 1000 to 10000 nM in assay [1] and less than 1000 nM in assay [2].
With `COc1ccc(NC(C)(C)C(=O)N[C@H]2[C@@H]3CC4C[C@H]2C[C@](O)(C4)C3)cc1` [Compound 58], the IC50 in assay [1] is greater than 10000 nM; in assay [2] it was less than 1000 nM.
On the same counts, the results for `Cc1ccc(OC(C)(C)C(=O)N[C@H]2[C@@H]3CC4C[C@H]2C[C@](OC(=O)CN2CCOCC2)(C4)C3)cc1` [Compound 41] are 1000 to 10000 nM and less than 1000 nM.
`Cc1cc(Cl)ccc1OC(C)(C)C(=O)N[C@H]1[C@@H]2CC3C[C@H]1C[C@](NC(=O)CN(C)C)(C3)C2` [Compound 72]: the IC50 was 1000 to 10000 nM in assay [1] and less than 1000 nM in assay [2].
Turning to `CC(C)(Oc1cccc(C(F)(F)F)c1)C(=O)N[C@H]1[C@@H]2CC3C[C@H]1C[C@](O)(C3)C2` [Compound 20], the IC50 in assay [1] and in assay [2] was less than 1000 nM in each case.
Turning to `Cc1ccccc1OC(C)(C)C(=O)N[C@H]1[C@@H]2CC3C[C@H]1C[C@](O)(C3)C2` [Compound 12], the IC50 in assay [1] and in assay [2] was less than 1000 nM each time.
`Cc1c(C)c2c(c(C)c1O)CCC(C)(C(=O)N[C@H]1[C@@H]3CC4C[C@H]1C[C@](O)(C4)C3)O2` (stereo partly drawn) [Compound 28]: the IC50 in assay [1] and in assay [2] was less than 1000 nM in each case.
In the case of `Cc1cc(Cl)ccc1OC(C)(C)C(=O)N[C@H]1[C@@H]2CC3C[C@H]1C[C@](C(=O)O)(C3)C2` [Compound 50], the IC50 in assay [1] was 1000 to 10000 nM; in assay [2] it was less than 1000 nM.
Take `CC(C)(C(=O)N[C@H]1[C@@H]2CC3C[C@H]1C[C@](O)(C3)C2)S(=O)(=O)c1ccc(Cl)cc1` [Compound 3]: the IC50 in assay [1] and in assay [2] was less than 1000 nM throughout.
`O=C(N[C@H]1[C@@H]2CC3C[C@H]1C[C@](O)(C3)C2)C1CCc2ccccc2O1` (stereo partly drawn) [Compound 26]: the IC50 in assay [1] and in assay [2] was less than 1000 nM throughout.
For `COc1cccc(NC(C)(C)C(=O)N[C@H]2[C@@H]3CC4C[C@H]2C[C@](F)(C4)C3)c1` [Compound 56], the IC50 in assay [1] is greater than 10000 nM; in assay [2], less than 1000 nM.
On the same counts, the results for `CC(C)(Nc1ccccc1)C(=O)N[C@H]1[C@@H]2CC3C[C@H]1C[C@](F)(C3)C2` [Compound 68] are greater than 10000 nM and less than 1000 nM.
The matching figures for `COc1ccc(NC(C)(C)C(=O)N[C@H]2[C@@H]3CC4C[C@H]2C[C@](F)(C4)C3)cc1` [Compound 59]: greater than 10000 nM and less than 1000 nM.
On the same counts, the results for `Cc1cccc(NC(C)(C)C(=O)N[C@H]2[C@@H]3CC4C[C@H]2C[C@](O)(C4)C3)c1` [Compound 55] are greater than 10000 nM and less than 1000 nM.
For the molecule `CC(C)(Oc1ccc(Cl)cc1)C(=O)N[C@H]1[C@@H]2CC3C[C@H]1C[C@](N)(C3)C2` [Compound 95], the IC50 in assay [1] is greater than 10000 nM; in assay [2], less than 1000 nM.
Turning to `CC(C)(Nc1cccc(C(F)(F)F)c1)C(=O)N[C@H]1[C@@H]2CC3C[C@H]1C[C@](NC(=O)CCl)(C3)C2` [Compound 80], the IC50 in assay [1] was 1000 to 10000 nM; in assay [2] it was less than 1000 nM.
On the same counts, the results for `CC(C)(Nc1cccc(C(F)(F)F)c1)C(=O)N[C@H]1[C@@H]2CC3C[C@H]1C[C@](O)(C3)C2` [Compound 60] are greater than 10000 nM and less than 1000 nM.
On the same counts, the results for `CC(=O)N[C@@]12CC3C[C@H](C1)[C@H](NC(=O)C(C)(C)Oc1ccc(Cl)cc1C)[C@@H](C3)C2` [Compound 29] are less than 1000 nM and less than 1000 nM.
On the same counts, the results for `O=C(N[C@H]1[C@@H]2CC3C[C@H]1C[C@](O)(C3)C2)C1COc2ccccc2O1` (stereo partly drawn) [Compound 8] are 1000 to 10000 nM and less than 1000 nM.
`Cc1cc(Cl)ccc1OC(C)(C)C(=O)N[C@H]1[C@@H]2CC3C[C@H]1C[C@](N)(C3)C2` [Compound 32]: the IC50 is greater than 10000 nM in assay [1] and less than 1000 nM in assay [2].
As to `O=C(N[C@H]1[C@@H]2CC3C[C@H]1C[C@](O)(C3)C2)[C@H]1CCc2cc(F)ccc2O1` [Compound 21], the IC50 in assay [1] and in assay [2] was less than 1000 nM each time.
